Source: patent US8133849B2, “Herbicidal compounds” (Syngenta Limited, priority 2007, dated 2012)

Legend:
Test in all cases: Example B2 herbicidal action, post-emergence, pots in glasshouse, damage score 0-10
Assay type in all cases: in vivo
Details in all cases: application post-emergence, rate 1000 g/ha, evaluated after 13 days
Solanum nigrum = test system: Solanum nigrum
Method: (§1) Seeds of a variety of test species were sown in standard soil in pots. After 8 days cultivation (post-emergence) under controlled conditions in a glasshouse (at 24/16° C., day/night; 14 hours light; 65% humidity), the plants were sprayed with an aqueous spray solution derived from the formulation of the technical active ingredient in acetone/water (50:50) solution containing 0.5% Tween 20 (polyoxyethelyene sorbitan monolaurate, CAS RN 9005-64-5). The test plants were then grown in a glasshouse under controlled conditions in a glasshouse (at 24/16° C., day/night; 14 hours light; 65% humidity) and watered twice daily. After 13 days, the test was evaluated (10=total damage to plant; 0=no damage to plant).

Ipomea hederaceae = test system: Ipomea hederaceae
Method: as §1

Amaranthus retroflexus = test system: Amaranthus retroflexus
Method: as §1

Setaria faberi = test system: Setaria faberi
Method: as §1

Echinochloa crus-galli = test system: Echinochloa crus-galli
Method: as §1

Row | Compound | SOLNI damage score (10=total damage to plant; 0=no damage to plant) (Solanum nigrum) | IPOHE damage score (10=total damage to plant; 0=no damage to plant) (Ipomea hederaceae) | AMARE damage score (10=total damage to plant; 0=no damage to plant) (Amaranthus retroflexus) | SETFA damage score (10=total damage to plant; 0=no damage to plant) (Setaria faberi) | ECHCG damage score (10=total damage to plant; 0=no damage to plant) (Echinochloa crus-galli)
1 | CS(=O)(=O)OC1=C(c2cc(C(F)(F)F)ccc2Cl)S(=O)(=O)N(CC(F)F)c2nccnc21 [Compound C95] | 9 | 10 | 7 | 3 | 6
2 | CC(C)C(=O)OC1=C(c2ccc(Cl)cc2Cl)S(=O)(=O)N(CC(Cl)Cl)c2nccnc21 [Compound C116] | 10 | 6 | 10 | 3 | 2
3 | CC(C)(C)C(=O)OC1=C(c2c(F)ccc(Cl)c2Cl)S(=O)(=O)N(CC(F)F)c2nccnc21 [Compound C20] | 10 | 10 | 10 | 0 | 8
4 | COc1ccc(F)c(C2=C(OC(=O)C(C)C)c3nccnc3N(CC(F)F)S2(=O)=O)c1 [Compound C138] | 7 | 2 | 0 | 0 | 1
5 | CC(C)(C)C(=O)OC1=C(c2ccccc2I)S(=O)(=O)N(CC(F)F)c2nccnc21 [Compound C81] | 10 | 10 | 10 | 7 | 8
6 | CC#CCN1c2nccnc2C(O)=C(c2c(Cl)ccc(Cl)c2C(F)(F)F)S1(=O)=O [Compound D48] | 8 | 7 | 3 | 0 | 0
7 | CC(C)(C)C(=O)OC1=C(c2cccc(Cl)c2Cl)S(=O)(=O)N(CC(F)F)c2nccnc21 [Compound C100] | 9 | 6 | 4 | 2 | 2
8 | CCN1c2nccnc2C(OC(=O)C(C)(C)C)=C(c2cccc(C(F)(F)F)c2Cl)S1(=O)=O [Compound C76] | 3 | 0 | 0 | 0 | 0
9 | CCN1c2nccnc2C(OC(=O)C(C)(C)C)=C(c2c(Cl)cccc2C(F)(F)F)S1(=O)=O [Compound C17] | 9 | 7 | 8 | 4 | 5
10 | CCN1c2nccnc2C(OC(=O)C(C)C)=C(c2ccccc2SC(F)(F)F)S1(=O)=O [Compound C19, isobutyric acid 1-ethyl-2,2-dioxo-3-(2-trifluoromethyl-sulfanyl-phenyl)-1,2-dihydro-2-λ-6-thia-1,5,8-triaza-naphthalen-4-yl ester] | 6 | 8 | 9 | 0 | 4
11 | CC(C)C(=O)OC1=C(c2ccccc2I)S(=O)(=O)N(CC(F)F)c2nccnc21 [Compound C117] | 10 | 9 | 10 | 7 | 8
12 | CCN1c2nccnc2C(O)=C(c2c(F)ccc(Cl)c2Cl)S1(=O)=O [Compound D4] | 10 | 10 | 8 | 2 | 4
13 | CN1c2nccnc2C(O)=C(c2c(Cl)ccc(Cl)c2Cl)S1(=O)=O [Compound D47] | 10 | 8 | 8 | 1 | 4
14 | CC(C)(C)C(=O)OC1=C(c2c(F)cccc2C(F)(F)F)S(=O)(=O)N(CC(F)F)c2nccnc21 [Compound C78] | 6 | 3 | 4 | 3 | 4
15 | CCSC(=O)OC1=C(c2cc(C(F)(F)F)ccc2Cl)S(=O)(=O)N(C)c2nccnc21 [Compound C89] | 10 | 9 | 7 | 1 | 6
16 | CCSC(=O)OC1=C(c2c(Cl)cccc2C(F)(F)F)S(=O)(=O)N(CC(F)F)c2nccnc21 [Compound C105] | 9 | 8 | 10 | 9 | 9
17 | CC(C)C(=O)OC1=C(c2c(C(F)(F)F)cccc2C(F)(F)F)S(=O)(=O)N(CC(F)F)c2nccnc21 [Compound C79] | 9 | 9 | 9 | 6 | 7
18 | CSC(=O)OC1=C(c2c(Cl)ccc(Cl)c2Cl)S(=O)(=O)N(CC(F)F)c2nccnc21 [Compound C130] | 10 | 10 | 10 | 7 | 8
19 | CCSC(=O)OC1=C(c2cc(C(F)(F)F)ccc2Br)S(=O)(=O)N(CC(F)F)c2nccnc21 [Compound C60] | 10 | 10 | 10 | 1 | 7
20 | CCN1c2nccnc2C(OC(=O)C(C)C)=C(c2c(Cl)cccc2C(F)(F)F)S1(=O)=O [Compound C30] | 10 | 9 | 8 | 5 | 6
21 | CCN1c2nccnc2C(O)=C(c2c(Cl)cccc2C(F)(F)F)S1(=O)=O [Compound D6] | 10 | 9 | 10 | 5 | 7
